≈ marks a conversion by molar mass, not a printed value.
Assays:
Klebsiella pneumoniae [1] = test: Antibacterial activity against Klebsiella pneumoniae at 10 ug/mL after 24 hrs by the disk diffusion method; assay type: functional
Escherichia coli [2] = test: microbe, parasite or virus in culture; conditions: ATTC 25922, 24 h
Description: Antibacterial activity against Escherichia coli ATTC 25922 at 10 ug/mL after 24 hrs by the disk diffusion method

Staphylococcus aureus [3] = test: microbe, parasite or virus in culture; conditions: ATTC 25922, 24 h
Description: Antibacterial activity against Staphylococcus aureus ATTC 25922 at 10 ug/mL after 24 hrs by the disk diffusion method

Pseudomonas aeruginosa [4] = test: microbe, parasite or virus in culture; conditions: ATTC 27853, 24 h, read-out: IZ
Description: Antibacterial activity against Pseudomonas aeruginosa ATTC 27853 at 10 ug/mL after 24 hrs by the disk diffusion method

Escherichia coli [5] = test: Antibacterial activity against Escherichia coli ATTC 25922 after 24 hrs by the disk diffusion method; assay type: functional; conditions: for MIC: Escherichia coli, ATTC 25922, 24 h
Staphylococcus aureus [6] = test: Antibacterial activity against Staphylococcus aureus ATTC […] after 24 hrs by the disk diffusion method; assay type: functional; conditions: for MIC: Staphylococcus aureus, 24 h
Pseudomonas aeruginosa [7] = test: Antibacterial activity against Pseudomonas aeruginosa ATTC 27853 after 24 hrs by the disk diffusion method; assay type: functional; conditions: for MIC: Pseudomonas aeruginosa, ATTC 27853, 24 h
Klebsiella pneumoniae [8] = test: Antibacterial activity against Klebsiella pneumoniae after 24 hrs by the disk diffusion method; assay type: functional; conditions: for MIC: Klebsiella pneumoniae, 24 h
Candida albicans = test: Antifungal activity against Candida albicans NICM 300 after 3 to days by serial plate dilution method; assay type: functional; conditions: for MIC: Candida albicans, NICM 300
Aspergillus fumigatus = test: Antifungal activity against Aspergillus fumigatus NICM 902 after 3 to days by serial plate dilution method; assay type: functional; conditions: for MIC: Aspergillus fumigatus, NICM 902
Aspergillus flavus = test: Antifungal activity against Aspergillus flavus NICM 524 after 3 to days by serial plate dilution method; assay type: functional; conditions: for MIC: Aspergillus flavus, NICM 524
[9] = test system: Trichophyton mentagrophytes; test: Antifungal activity against Trichophyton mentagrophytes after 3 to days by serial plate dilution method; assay type: functional; conditions: for MIC: Trichophyton mentagrophytes

Structure (SMILES)	MIC (Escherichia coli [5]) [µg/mL]	MIC (Staphylococcus aureus [6]) [µg/mL]	MIC (Pseudomonas aeruginosa [7]) [µg/mL]	MIC (Klebsiella pneumoniae [8]) [µg/mL]	MIC (Candida albicans) [µg/mL]	MIC (Aspergillus fumigatus) [µg/mL]	MIC (Aspergillus flavus) [µg/mL]	MIC [9] [µg/mL]	inhibition zone (IZ) (Escherichia coli [5]) [mm]	inhibition zone (IZ) (Staphylococcus aureus [6]) [mm]	inhibition zone (IZ) (Pseudomonas aeruginosa [7]) [mm]	inhibition zone (IZ) (Klebsiella pneumoniae [8]) [mm]	diameter of the inhibition zone (DIZ) (Candida albicans) [mm]	diameter of the inhibition zone (DIZ) (Aspergillus fumigatus) [mm]	diameter of the inhibition zone (DIZ) (Aspergillus flavus) [mm]	diameter of the inhibition zone (DIZ) [9] [mm]	further results
O=C(O)c1cn(C2CC2)c2cc(N3CCNCC3)c(F)cc2c1=O [CIPROFLOXACIN]	–	–	–	–	–	–	–	–	–	–	–	–	–	–	–	–	MIC (Klebsiella pneumoniae [1]): 6 µg/mL (≈ 18.1 µM); zone of inhibition at 10 µg/mL (Klebsiella pneumoniae [1]; read-out: IZ): 25 mm; MIC (Escherichia coli [2]): 6 µg/mL (≈ 18.1 µM); MIC (Staphylococcus aureus [3]): 12.5 µg/mL (≈ 37.7 µM); zone of inhibition at 10 µg/mL (Staphylococcus aureus [3]; read-out: IZ): 19 mm; zone of inhibition at 10 µg/mL (Pseudomonas aeruginosa [4]): 18 mm
CSc1ccc(Cc2nnc3sc(-c4ccc(-c5cc(Cl)c(Cl)cc5Cl)o4)nn23)cc1	25 (≈ 49.2 µM)	25 (≈ 49.2 µM)	25 (≈ 49.2 µM)	25 (≈ 49.2 µM)	25 (≈ 49.2 µM)	25 (≈ 49.2 µM)	12.5 (≈ 24.6 µM)	25 (≈ 49.2 µM)	12	13	10	10	12	12	17	17	–
CSc1ccc(Cc2nnc3sc(-c4ccc(Br)cc4)nn23)cc1	25 (≈ 59.9 µM)	25 (≈ 59.9 µM)	25 (≈ 59.9 µM)	25 (≈ 59.9 µM)	25 (≈ 59.9 µM)	25 (≈ 59.9 µM)	12.5 (≈ 30 µM)	25 (≈ 59.9 µM)	13	15	16	20	13	14	15	13	–

The remaining compounds from weak to strong by MIC (Escherichia coli [5]), led by results:

MIC (Escherichia coli [5]) [µg/mL]	MIC (Staphylococcus aureus [6]) [µg/mL]	MIC (Pseudomonas aeruginosa [7]) [µg/mL]	MIC (Klebsiella pneumoniae [8]) [µg/mL]	MIC (Candida albicans) [µg/mL]	MIC (Aspergillus fumigatus) [µg/mL]	MIC (Aspergillus flavus) [µg/mL]	MIC [9] [µg/mL]	Structure (SMILES)	inhibition zone (IZ) (Escherichia coli [5]) [mm]	inhibition zone (IZ) (Staphylococcus aureus [6]) [mm]	inhibition zone (IZ) (Pseudomonas aeruginosa [7]) [mm]	inhibition zone (IZ) (Klebsiella pneumoniae [8]) [mm]	diameter of the inhibition zone (DIZ) (Candida albicans) [mm]	diameter of the inhibition zone (DIZ) (Aspergillus fumigatus) [mm]	diameter of the inhibition zone (DIZ) (Aspergillus flavus) [mm]	diameter of the inhibition zone (DIZ) [9] [mm]	further results
12.5 (≈ 29.9 µM)	12.5 (≈ 29.9 µM)	12.5 (≈ 29.9 µM)	6 (≈ 14.4 µM)	6 (≈ 14.4 µM)	6 (≈ 14.4 µM)	12.5 (≈ 29.9 µM)	6 (≈ 14.4 µM)	CSc1ccc(Cc2nnc3sc(-c4ccc([N+](=O)[O-])cc4Cl)nn23)cc1	18	19	17	23	20	22	17	19	–
12.5 (≈ 28.8 µM)	25 (≈ 57.5 µM)	12.5 (≈ 28.8 µM)	12.5 (≈ 28.8 µM)	25 (≈ 57.5 µM)	6 (≈ 13.8 µM)	12.5 (≈ 28.8 µM)	6 (≈ 13.8 µM)	COc1ccc(-c2ccc(-c3nn4c(Cc5ccc(SC)cc5)nnc4s3)o2)cc1	16	14	17	18	10	22	18	18	–
